Key:
Type in all cases: in vivo
blood serum insulin = test: Blood serum insulin in Nembutal-treated rats, radioimmunoassay; settings: Nembutal 50 mg/kg i.p., blood sampled 15 min later
Experimental: (§1) The in vivo activity of the cyclic somatostatin disulfide analogues of this invention was established with cyclic somatostatin disulfide as a representative member of the family of compounds by comparing the blood serum growth hormone, glucagon and insulin concentrations found in rats grouped for control, somatostatin and cyclic somatostatin disulfide comparison. The rats, weighing between 200 and 250 grams were treated with Nembutal, 50 milligrams per kilogram intraperitoneally. After five minutes the somatostatin, control and cyclic somatostatin disulfide administrations were made subcutaneously. The rats blood was sampled fifteen minutes later and the growth hormone, glucagon and insulin levels were determined by radioimmunoassay.

[1] = tested on: blood serum growth hormone; test: Blood serum growth hormone in Nembutal-treated rats, radioimmunoassay; settings: Nembutal 50 mg/kg i.p., blood sampled 15 min later, control 291±47, *p < 0.01
Experimental: as §1

blood serum glucagon = test: Blood serum glucagon in Nembutal-treated rats, radioimmunoassay; settings: Nembutal 50 mg/kg i.p., blood sampled 15 min later
Experimental: as §1

Row | Compound | Insulin (blood serum insulin; dose 3000 μg/kg subcutaneously, control 272±39) | GH ([1]; dose 3000 μg/kg subcutaneously) | Glucagon (blood serum glucagon; dose 3000 μg/kg subcutaneously, control 33±2) | Insulin (blood serum insulin; dose 200 μg/kg subcutaneously, control 272±39, +p < 0.05) | GH ([1]; dose 200 μg/kg subcutaneously) | Glucagon (blood serum glucagon; dose 200 μg/kg subcutaneously, control 33±2, *p < 0.01)
1 | C[C@@H]1NC(=O)[C@@H]2CSSC[C@H](NC(=O)CNC1=O)C(=O)N[C@@H](CCCCN)C(=O)N[C@@H](CC(N)=O)C(=O)N[C@@H](Cc1ccccc1)C(=O)N[C@@H](Cc1ccccc1)C(=O)N[C@@H](Cc1c[nH]c3ccccc13)C(=O)N[C@@H](CCCCN)C(=O)N[C@@H]([C@@H](C)O)C(=O)N[C@@H](Cc1ccccc1)C(=O)N[C@@H]([C@@H](C)O)C(=O)N[C@@H](CO)C(=O)N2 [Example IV, Cyclo-L-cysteinyl-L-alanyl-glycyl-L-cysteinyl-L-lysyl-L-asparaginyl-L-phenyl-alanyl-L-phenylalanyl-L-tryptophyl-L-lysyl-L-threonyl-L-phenylalanyl-L-threonyl-L-serine (1-4 disulfide)] | 308 ± 30 µU/mL | 40 ± 4 ng/mL | 29.7 ± 4 pg/mL |  |  | 
2 | C[C@H](N)C(=O)NCC(=O)N[C@H]1CSSC[C@@H](C(=O)O)NC(=O)[C@H](CO)NC(=O)[C@H]([C@@H](C)O)NC(=O)[C@H](Cc2ccccc2)NC(=O)[C@H]([C@@H](C)O)NC(=O)[C@H](CCCCN)NC(=O)[C@H](Cc2c[nH]c3ccccc23)NC(=O)[C@H](Cc2ccccc2)NC(=O)[C@H](Cc2ccccc2)NC(=O)[C@H](CC(N)=O)NC(=O)[C@H](CCCCN)NC1=O [Somatostatin, somatostatin] |  |  |  | 161 ± 21 µU/mL | 40 ± 4 ng/mL | 17 ± 2 pg/mL

Reference: US3997517A, “Cyclic somatostatin disulfide analogues” (American Home Products Corporation, priority 1976, dated 1976)
